Experimental data reported in US20260015352A1, “METHYLTRANSFERASE INHIBITOR AND USE THEREOF” (CYTOSINLAB THERAPEUTICS CO., LTD., priority 2022, published 2026).

Each compound was assayed on G401 cells (assay: G401 ELISA test). Settings: Homo sapiens, G-401; G401 cells treated with compounds for 72 hours; ELISA detecting K27 and H3; read-out: G401_ELISA IC50.
Assay type: cell-based

For `COCCNCc1cnc(NCc2ccc(Nc3ccc4ccnc(OC)c4n3)c(F)c2)nc1` [PA247], which IC50 is on record?
Its IC50 is over 1000 nM.

Which IC50 does the source give for `C[C@@H](Nc1ncc(CC(=O)NC2COC2)cn1)C12CCC(Nc3ccc4ccnc(Cl)c4n3)(CC1)CC2` [PA209] here?
The IC50 was 100 to 1000 nM.

For `COc1nccc2ccc(Nc3ccc(CNc4ncc(CNCc5cocn5)cn4)cc3F)nc12` [PA239], which IC50 is on record?
Its IC50 is 100 to 1000 nM.

With `COc1nccc2ccc(Nc3ccc([C@H](C)Nc4ncc(CC(=O)N(CCC#N)CCC#N)cn4)cc3F)nc12` [PA192] as the compound, how does the IC50 read?
The IC50 was at most 100 nM.

With `O=C(Cc1cnc(NCC23CC(Nc4ccc5ccnc(Cl)c5n4)(C2)C3)nc1)NC1COC1` [PA069] as the compound, how does the IC50 read?
The IC50 was over 1000 nM.

`COc1nccc2ccc(Nc3ccc(CNc4ncc(CNCC5CCOCC5)cn4)cc3F)nc12` [PA252] was tested. Which IC50 did it give?
Its IC50 is over 1000 nM.

Which IC50 does the source give for `COc1nccc2ccc(Nc3ccc(CNc4ncc(CN5CCC(O)CC5)cn4)cc3F)nc12` [PA227] here?
Its IC50 is 100 to 1000 nM.

With `COc1nccc2ccc(Nc3ccc([C@H](C)Nc4ncc(CCc5cc(C(N)=O)n[nH]5)cn4)cc3F)nc12` [PA245] as the compound, how does the IC50 read?
Its IC50 is over 1000 nM.

Which IC50 does the source give for `COc1nccc2ccc(Nc3ccc([C@H](C)Nc4ncc(N5CC(CC#N)C5)cn4)cc3F)nc12` [PA199] here?
Its IC50 is at most 100 nM.

For `COc1nccc2ccc(Nc3ccc([C@H](C)Nc4ncc(CN5CC(C#N)C5)cn4)cc3F)nc12` [PA173], which IC50 is on record?
Its IC50 is at most 100 nM.

With `COc1nccc2ccc(Nc3ccc(CNc4ncc(CCNC5COC5)cn4)cc3)nc12` [PA211] as the compound, how does the IC50 read?
The IC50 was 100 to 1000 nM.

With `COc1nccc2ccc(Nc3ccc(C(C)Nc4ncc(CC(=O)NC5COC5)cn4)cc3)nc12` (racemic) [PA039, 2-(2-((1-(4-((8-methoxy-1,7-naphthyridin-2-yl)amino)phenyl)ethyl)amino)pyrimidin-5-yl) acetic acid N-(oxetan-3-yl) acetamide] as the compound, how does the IC50 read?
The IC50 was 100 to 1000 nM.

How did the IC50 turn out when `COc1nccc2ccc(NC34CCC(CNc5ncc(CC(=O)NC6COC6)cn5)(CC3)OC4)nc12` [PA229] was run?
Its IC50 is 100 to 1000 nM.

With `O=C(Cc1cnc(NCC23CCC(Nc4ccc5cccc(Cl)c5n4)(CC2)CC3)nc1)NC1COC1` [PA263] as the compound, how does the IC50 read?
The IC50 was at most 100 nM.

Which IC50 does the source give for `COc1nccc2ccc(NC34CCC(CNc5ncc(CC(=O)NC6COC6)cn5)(CC3)CC4)nc12` [PA079] here?
The IC50 was at most 100 nM.

How did the IC50 turn out when `C[C@H](Nc1ncc(C(NC2CS(=O)(=O)C2)C(=O)OC(C)(C)C)cn1)C12CCC(Nc3ccc4ccnc(Cl)c4n3)(CC1)CC2` (some centres unmarked) [PA257] was run?
Its IC50 is at most 100 nM.

For `COc1nccc2ccc(Nc3ccc([C@H](C)Nc4ncc(CC(=O)NC5COC5)cn4)cc3)nc12` [PA061, 2-(2-((1-(4-((8-methoxy-1,7-naphthyridin-2-yl)amino)phenyl)ethyl)amino)pyrimidin-5-yl) acetic acid N-(oxetan-3-yl) acetamide], which IC50 is on record?
The IC50 was at most 100 nM.

`COc1nccc2ccc(Nc3ccc([C@H](C)Nc4ncc([C@@H](C)C(=O)NC5COC5)cn4)cc3F)nc12` [PA225] was tested. Which IC50 did it give?
Its IC50 is 100 to 1000 nM.

For `COc1nccc2ccc(Nc3ccc(CNc4ncc(CC(=O)OC(C)(C)C)cn4)cc3)nc12` [PA007], which IC50 is on record?
Its IC50 is over 1000 nM.

For `COc1nccc2ccc(Nc3ccc([C@H](C)Nc4ncc(C(C)NC5CS(=O)(=O)C5)cn4)cc3F)nc12` (some centres unmarked) [PA163], which IC50 is on record?
Its IC50 is at most 100 nM.
